Measurements as given in patent publication US11420975B2, “Substituted imidazo[1,5-a]pyrazines as Bruton's tyrosine kinase inhibitors” (TRANSTHERA SCIENCES (NANJING), INC., priority 2018, dated 2022).

Key:
[1] = target: BTK(wt) (Homo sapiens (Human), UniProt Q06187); assay: In vitro inhibitory activity against BTK(wt) enzyme (33P-ATP filter binding); format: biochemical; conditions: class symbols
Experimental: (§1) The substrate solution was prepared by adding the substrate poly(Glu, Tyr) sodium salt (Sigma Aldrich, St. Louis, Mo.) to the substrate reaction buffer (20 mM Hepes (pH 7.5), 10 mM MgCl2, 1 mM EGTA, 0.02% Brij35, 0.02 mg/mL BSA, 0.1 mM Na3VO4, 2 mM DTT and 1% DMSO) (final substrate concentration in the reaction solution was 0.2 μM). Test compound was formulated into stock solutions at 10 mM concentration with 100% DMSO, and 3-fold serial dilution for 10 doses was performed in a 384-well cyclic olefin copolymer LDV microplate. […] Test compound in 100% DMSO was then added to the kinase reaction mixture by acoustic liquid transfer technology (Echo 550; nanoliter range) (Labcyte Inc, Sunnyvale, Calif.) and incubated for 20 min at room temperature. 33P-ATP (specific activity 10 μCi/μL) was added to the reaction mixture to initiate the reaction, followed by incubation at room temperature for 2 h. A small portion of the reaction mixture was dropped onto P-81 ion exchange filter paper (Whatman). After washing the unbound phosphate from the filter paper with 0.75% phosphate buffer (three times) and drying, the remaining radioactivity on the filter paper was measured. The kinase activity was expressed as the percentage of the remaining kinase activity in the test sample to the kinase activity in the vehicle (dimethyl sulfoxide) blank control. IC50 values were calculated by curve fitting the data obtained using Prism (GraphPad Software).

[2] = target: BTK(C481S) (Homo sapiens (Human), UniProt Q06187, C481S); assay: In vitro inhibitory activity against BTK(C481S) enzyme (33P-ATP filter binding); format: biochemical; conditions: class symbols; read-out: IC50 BTK(C48IS)
Experimental: as §1

Sequence of BTK(wt) (Q06187 whole entry): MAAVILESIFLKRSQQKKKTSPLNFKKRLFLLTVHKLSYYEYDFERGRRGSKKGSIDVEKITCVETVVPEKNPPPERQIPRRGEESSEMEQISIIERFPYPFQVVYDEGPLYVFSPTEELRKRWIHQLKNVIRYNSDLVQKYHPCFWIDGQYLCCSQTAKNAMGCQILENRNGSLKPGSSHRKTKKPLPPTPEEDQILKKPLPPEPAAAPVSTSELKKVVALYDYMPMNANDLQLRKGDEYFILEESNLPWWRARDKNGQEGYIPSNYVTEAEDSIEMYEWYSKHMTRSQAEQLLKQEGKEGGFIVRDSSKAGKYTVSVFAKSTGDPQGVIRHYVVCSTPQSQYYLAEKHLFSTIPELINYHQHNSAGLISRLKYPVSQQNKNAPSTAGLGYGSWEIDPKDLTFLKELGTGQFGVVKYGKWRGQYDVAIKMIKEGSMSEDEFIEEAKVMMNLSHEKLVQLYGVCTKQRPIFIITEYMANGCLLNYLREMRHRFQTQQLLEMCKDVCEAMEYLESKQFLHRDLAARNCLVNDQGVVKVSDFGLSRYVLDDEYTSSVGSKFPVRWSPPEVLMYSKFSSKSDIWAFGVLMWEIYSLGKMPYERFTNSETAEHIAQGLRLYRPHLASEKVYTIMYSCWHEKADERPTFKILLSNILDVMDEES
Sequence of BTK(C481S) (Q06187 whole entry C481S): as the sequence (Q06187 whole entry) above, with C481S counted along it

SMILES | IC50 [1] [nM] | IC50 [2] [nM]
CC#CC(=O)NC12CCC(c3nc(-c4ccc(C(=O)Nc5cc(F)ccn5)cc4)c4c(N)nccn34)(CC1)C2 [Compound A-7-2, 4-(8-amino-3-(4-(but-2-ynamido)bicyclo[2.2.1]heptan-1-yl)imidazo[1,5-a]pyrazin-1-yl)-N-(4-fluoropyridin-2-yl)benzamide] | 1 to 10 | 0.1 to 1
CC#CC(=O)NC12CCC(c3nc(-c4ccc(C(=O)Nc5cc(C(F)(F)F)ccn5)cc4)c4c(N)nccn34)(CC1)C2 [Compound A-7-3, 4-(8-amino-3-(4-(but-2-ynamido)bicyclo[2.2.1]heptan-1-yl)imidazo[1,5-a]pyrazin-1-yl)-N-(4-(trifluoromethyl)pyridin-2-yl)benzamide] | 0.1 to 1 | 0.1 to 1
CC#CC(=O)NC12CCC(c3nc(-c4ccc(C(=O)Nc5cc(C#N)ccn5)cc4)c4c(N)nccn34)(CC1)C2 [Compound A-7-5, 4-(8-amino-3-(4-(but-2-ynamido)bicyclo[2.2.1]heptan-1-yl)imidazo[1,5-a]pyrazin-1-yl)-N-(4-cyanopyridin-2-yl)benzamide] | 1 to 10 | 0.1 to 1
CC#CC(=O)NC12CCC(c3nc(-c4ccc(C(=O)Nc5cc(C(F)(F)F)ccn5)cc4F)c4c(N)nccn34)(CC1)C2 [Compound A-7-9, 4-(8-amino-3-(4-(but-2-ynamido)bicyclo[2.2.1]heptan-1-yl)imidazo[1,5-a]pyrazin-1-yl)-3-fluoro-N-(4-(trifluoromethyl)pyridin-2-yl)benzamide] | 1 to 10 | 0.1 to 1
CC#CC(=O)NC12CCC(c3nc(-c4ccc(CNC(=O)c5cc(F)ccc5OC)cc4)c4c(N)nccn34)(CC1)C2 [Compound A-7-12, N-(4-(8-amino-3-(4-(but-2-ynamido)bicyclo[2.2.1]heptan-1-yl)imidazo[1,5-a]pyrazin-1-yl)benzyl)-5-fluoro-2-methoxybenzamide] | 1 to 10 | 0.1 to 1
CC#CC(=O)NC12CCC(c3nc(-c4ccc(Oc5ccccc5)cc4)c4c(N)nccn34)(CC1)C2 [Compound A-7-14, N-(4-(8-amino-1-(4-phenoxyphenyl)imidazo[1,5-a]pyrazin-3-yl)bicyclo[2.2.1]heptan-1-yl)but-2-ynamide] | 1 to 10 | 0.1 to 1
COC/C=C/C(=O)NC12CCC(c3nc(-c4ccc(C(=O)Nc5cc(C(F)(F)F)ccn5)cc4)c4c(N)nccn34)(CC1)C2 [Compound A-10-1, (E)-4-(8-amino-3-(4-(4-methoxybut-2-enamido)bicyclo[2.2.1]heptan-1-yl)imidazo[1,5-a]pyrazin-1-yl)-N-(4-(trifluoromethyl)pyridin-2-yl)benzamide] | 1 to 10 | 0.1 to 1
C=CC(=O)NC12CCC(c3nc(-c4ccc(C(=O)Nc5cc(C(F)(F)F)ccn5)cc4)c4c(N)nccn34)(CC1)C2 [Compound A-10-3, 4-(3-(4-acrylamidobicyclo[2.2.1]heptan-1-yl)-8-aminoimidazo[1,5-a]pyrazin-1-yl)-N-(4-(trifluoromethyl)pyridin-2-yl)benzamide] | 1 to 10 | 0.1 to 1
CC1(C(=O)NC23CCC(c4nc(-c5ccc(C(=O)Nc6cc(C(F)(F)F)ccn6)cc5)c5c(N)nccn45)(CC2)C3)COC1 [Compound A-10-5, N-(4-(8-amino-1-(4-((4-(trifluoromethyl)pyridin-2-yl)carbamoyl)phenyl)imidazo[1,5-a]pyrazin-3-yl)bicyclo[2.2.1]heptan-1-yl)-3-methyloxetane-3-carboxamide] | 1 to 10 | ≤ 0.1
CC(C)(O)C(=O)NC12CCC(c3nc(-c4ccc(C(=O)Nc5cc(C(F)(F)F)ccn5)cc4)c4c(N)nccn34)(CC1)C2 [Compound A-10-6, 4-(8-amino-3-(4-(2-hydroxy-2-methylpropanamido)bicyclo[2.2.1]heptan-1-yl)imidazo[1,5-a]pyrazin-1-yl)-N-(4-(trifluoromethyl)pyridin-2-yl)benzamide] | 1 to 10 | ≤ 0.1
COCC(=O)NC12CCC(c3nc(-c4ccc(C(=O)Nc5cc(C(F)(F)F)ccn5)cc4)c4c(N)nccn34)(CC1)C2 [Compound A-10-7, 4-(8-amino-3-(4-(2-methoxyacetamido)bicyclo[2.2.1]heptan-1-yl)imidazo[1,5-a]pyrazin-1-yl)-N-(4-(trifluoromethyl)pyridin-2-yl)benzamide] | 1 to 10 | 0.1 to 1
COCCC(=O)NC12CCC(c3nc(-c4ccc(C(=O)Nc5cc(C(F)(F)F)ccn5)cc4)c4c(N)nccn34)(CC1)C2 [Compound A-10-8, 4-(8-amino-3-(4-(3-methoxypropanamido)bicyclo[2.2.1]heptan-1-yl)imidazo[1,5-a]pyrazin-1-yl)-N-(4-(trifluoromethyl)pyridin-2-yl)benzamide] | 1 to 10 | ≤ 0.1
Nc1nccn2c(C34CCC(NC(=O)C5CCCO5)(CC3)C4)nc(-c3ccc(C(=O)Nc4cc(C(F)(F)F)ccn4)cc3)c12 (centres unmarked) [Compound A-10-11, N-(4-(8-amino-1-(4-((4-(trifluoromethyl)pyridin-2-yl)carbamoyl)phenyl)imidazo[1,5-a]pyrazin-3-yl)bicyclo[2.2.1]heptan-1-yl)tetrahydrofuran-2-carboxamide] | 1 to 10 | 0.1 to 1
N#CC1(C(=O)NC23CCC(c4nc(-c5ccc(C(=O)Nc6cc(C(F)(F)F)ccn6)cc5)c5c(N)nccn45)(CC2)C3)CC1 [Compound A-10-12, 4-(8-amino-3-(4-(1-cyanocyclopropanecarboxamido)bicyclo[2.2.1]heptan-1-yl)imidazo[1,5-a]pyrazin-1-yl)-N-(4-(trifluoromethyl)pyridin-2-yl)benzamide] | 1 to 10 | 0.1 to 1
N#CCC(=O)NC12CCC(c3nc(-c4ccc(C(=O)Nc5cc(C(F)(F)F)ccn5)cc4)c4c(N)nccn34)(CC1)C2 [Compound A-10-13, 4-(8-amino-3-(4-(2-cyanoacetamido)bicyclo[2.2.1]heptan-1-yl)imidazo[1,5-a]pyrazin-1-yl)-N-(4-(trifluoromethyl)pyridin-2-yl)benzamide] | 1 to 10 | ≤ 0.1

Now from value to compound:

IC50 [1] [nM] | IC50 [2] [nM] | SMILES
1 to 10 | 0.1 to 1 | CC(C#N)C(=O)NC12CCC(c3nc(-c4ccc(C(=O)Nc5cc(C(F)(F)F)ccn5)cc4)c4c(N)nccn34)(CC1)C2 (centres unmarked) [Compound A-10-14, 4-(8-amino-3-(4-(2-cyanopropanamido)bicyclo[2.2.1]heptan-1-yl)imidazo[1,5-a]pyrazin-1-yl)-N-(4-(trifluoromethyl)pyridin-2-yl)benzamide]
1 to 10 | 0.1 to 1 | N#CC1(C(=O)NC23CCC(c4nc(-c5ccc(C(=O)Nc6cc(C(F)(F)F)ccn6)cc5)c5c(N)nccn45)(CC2)C3)CCOCC1 [Compound A-10-15, N-(4-(8-amino-1-(4-((4-(trifluoromethyl)pyridin-2-yl)carbamoyl)phenyl)imidazo[1,5-a]pyrazin-3-yl)bicyclo[2.2.1]heptan-1-yl)-4-cyanotetrahydro-2H-pyran-4-carboxamide]
10 to 50 | 1 to 10 | Nc1nccn2c(C34CCC(NC(=O)c5ccccc5)(CC3)C4)nc(-c3ccc(C(=O)Nc4cc(C(F)(F)F)ccn4)cc3)c12 [Compound A-10-17, 4-(8-amino-3-(4-benzamidobicyclo[2.2.1]heptan-1-yl)imidazo[1,5-a]pyrazin-1-yl)-N-(4-(trifluoromethyl)pyridin-2-yl)benzamide]
10 to 50 | 1 to 10 | Nc1nccn2c(C34CCC(NC(=O)c5ccccn5)(CC3)C4)nc(-c3ccc(C(=O)Nc4cc(C(F)(F)F)ccn4)cc3)c12 [Compound A-10-18, N-(4-(8-amino-1-(4-((4-(trifluoromethyl)pyridin-2-yl)carbamoyl)phenyl)imidazo[1,5-a]pyrazin-3-yl)bicyclo[2.2.1]heptan-1-yl)picolinamide]
10 to 50 | 1 to 10 | Nc1nccn2c(C34CCC(NC(=O)c5cccnc5)(CC3)C4)nc(-c3ccc(C(=O)Nc4cc(C(F)(F)F)ccn4)cc3)c12 [Compound A-10-19, N-(4-(8-amino-1-(4-((4-(trifluoromethyl)pyridin-2-yl)carbamoyl)phenyl)imidazo[1,5-a]pyrazin-3-yl)bicyclo[2.2.1]heptan-1-yl)nicotinamide]
10 to 50 | 1 to 10 | COc1ccccc1C(=O)NC12CCC(c3nc(-c4ccc(C(=O)Nc5cc(C(F)(F)F)ccn5)cc4)c4c(N)nccn34)(CC1)C2 [Compound A-10-20, N-(4-(8-amino-1-(4-((4-(trifluoromethyl)pyridin-2-yl)carbamoyl)phenyl)imidazo[1,5-a]pyrazin-3-yl)bicyclo[2.2.1]heptan-1-yl)-2-methoxybenzamide]
1 to 10 | 1 to 10 | Nc1nccn2c(C34CCC(NC(=O)c5ccco5)(CC3)C4)nc(-c3ccc(C(=O)Nc4cc(C(F)(F)F)ccn4)cc3)c12 [Compound A-10-21, N-(4-(8-amino-1-(4-((4-(trifluoromethyl)pyridin-2-yl)carbamoyl)phenyl)imidazo[1,5-a]pyrazin-3-yl)bicyclo[2.2.1]heptan-1-yl)furan-2-carboxamide]
